Measured values reported in patent US6683079B2, “3-(amino-or aminoalkyl) pyridinone derivatives and their use for the treatment of HIV related diseases” (Centre National de la Recherche Scientifique, priority 1998, dated 2004).

What was measured:
HIV-1 strain 103 N = assay: Retrovirucidal effect on HIV-1 strain 103 N (Table 3); type: cell-based; details: HIV-1 strain 103N (RT Lys-103 to Asn mutant); pIC50=-log IC50, IC50 in M
Description: (§1) HIV-1 viral suspensions were obtained by coculture of MT4 cells and H9 cells chronically infected by HIV-ILai isolate. 200 μl of a cell supernatant containing viral particles (HIV-ILai: 100 TCID50) were incubated at room temperature with various concentrations of different inhibitors. After 3 hours, virions were washed through 0.02 μm anopore membrane in 1.5 mL Vectaspin tube (Whatman) for 10 minutes at 5 000 g. Each of the three subsequent washes was performed in the same conditions after the viral concentrate was refilled with 500 μL of RPMI medium. Then, the viral concentrate was readjusted to the initial volume with RPMI plus 10% foetal calf serum (FCS). The residual infectivity was assayed on P4 cells as described by CHARNEAU et al. (1994, J. Mol. Biol., 241, 651-662). Briefly, P4 cells were plated using 100 μL of DMEM medium plus 10% FCS in 96 plate multi-wells at 20×10^5 cells per mL. After overnight incubation at 37° C., the supernatant was discarded and the viral preparation (200 μL) was added. One day later the wells were washed three times in PBS. Each well was refilled with 200 μL of a reaction buffer containing 50 mM Tris-HCl pH 8.5, 100 mM 2-mercaptoethanol, 0.05% Triton X-100 and 5 mM 4-methylumbelliferyl β-D-galactopyranoside (MUG). After 3 hours at 37° C., the level of the reaction was measured in a fluorescence microplate reader.
(§2) The retrovirucidal effect of each pyridinone derivative listed in table 3 has been assayed according to the teachings of example 2, excepted that the anti-viral effect has been tested on the two following HIV-1 strains:
b) HIV-1 strain 103 N which is a mutant strain bearing a point mutation in the reverse transcriptase gene leading to an enzyme wherein the initial Lys-103 residue is replaced for a Asn residue.
The HIV-1 103 N strain has also been described by SAHLBERG et al.,(1998, Antiviral Res., 37 (3): ASS) and BALZARiNI et al. (1996, Antimicrobial Agents and Chemotherapy, 40 (6): 1454-1466).

HIV-1 strain IIIB = assay: Retrovirucidal effect on HIV-1 strain IIIB (Table 3); type: cell-based; details: pIC50=-log IC50, IC50 in M
Description: as §1, §2
a) HIV-1 strain IIIB (see example 2);

Row | SMILES | HIV1 pIC50 strain 103N (HIV-1 strain 103 N) | HIV1 pIC50 strain IIIB (HIV-1 strain IIIB)
1 | CCc1c(C)[nH]c(=O)c(N)c1Cc1ccc(C(F)(F)F)cc1 [Compound 52] | <5 | <4
2 | CCc1c(C)[nH]c(=O)c(N(C)C)c1Cc1ccc(C(F)(F)F)cc1 [Compound 53] | <5 | 5.828
3 | CCc1c(C)[nH]c(=O)c(N)c1Cc1ccc(Cl)cc1 [Compound 54] | <5 | <4
4 | CCc1c(C)[nH]c(=O)c(N(C)CC)c1Cc1cc(C)cc(C)c1 [Compound 56] | 7.11 | 8.194
5 | CCc1c(C)[nH]c(=O)c(N(C)C)c1Cc1cccc(C(F)(F)F)c1 [Compound 57] | 6.414 | 8.086
6 | CCc1c(C)[nH]c(=O)c(N)c1Cc1c(C)cc(C)cc1C [Compound 58] | <5 | <4
7 | CCc1c(C)[nH]c(=O)c(N(C)C)c1Cc1c(C)cc(C)cc1C [Compound 59] | <5 | 5.029
8 | CCc1c(C)[nH]c(=O)c(N(C)C)c1Cc1cccc(Br)c1 [Compound 60] | 7.001 | 8.444
9 | CCc1c(C)[nH]c(=O)c(N(C)CCCSC)c1Cc1cc(C)cc(C)c1 [Compound 61] | 5.922 | 7.693
10 | CCc1c(C)[nH]c(=O)c(N(C)CC(C)C)c1Cc1cc(C)cc(C)c1 [Compound 62] | 5.305 | 6.604
11 | CCCc1[nH]c(=O)c(N(C)C)c(Cc2cc(C)cc(C)c2)c1C [Compound 63] | 6.334 | 7.029
12 | CCc1c(C)[nH]c(=O)c(N(C)C)c1Cc1ccccc1Cl [Compound 65] | 6.405 | 8.284
13 | CCc1c(C)[nH]c(=O)c(N(C)C)c1Cc1nccs1 [Compound 66] | 5.72 | 7.588
14 | CCc1c(C)[nH]c(=O)c(N(C)Cc2ccccc2)c1Cc1cc(C)cc(C)c1 [Compound 67] | 4.955 | 6.804
15 | CCCCNc1c(Cc2cc(C)cc(C)c2)c(CC)c(C)[nH]c1=O [Compound 69] | 5.655 | 6.891
16 | CCCc1c(C)[nH]c(=O)c(N(C)C)c1Cc1cc(C)cc(C)c1 [Compound 71] | 7.049 | 7.777
17 | CCc1c(C)[nH]c(=O)c(NCC(C)C)c1Cc1cc(C)cc(C)c1 [Compound 72] | <4 | 7.079
18 | CCc1c(C)[nH]c(=O)c(N)c1C(OC)c1cc(C)cc(C)c1 (stereo not drawn) [Compound 73] | 6.92 | 8.027
19 | CCc1c(C)[nH]c(=O)c(N)c1Cc1ccnc2ccccc12 [Compound 74] | <4 | <4
20 | CCc1c(C)[nH]c(=O)c(N(C)C)c1Cc1ccnc2ccccc12 [Compound 75] | 4.132 | 5.252
21 | Cc1cc(C)cc(Cc2cc(CCC(C)C)[nH]c(=O)c2N)c1 [Compound 76] | <4 | <5.494
22 | Cc1cc(C)cc(Cc2cc(CCC(C)C)[nH]c(=O)c2N(C)C)c1 [Compound 77] | <4 | 5.827
23 | CCc1c(C)[nH]c(=O)c(N(C)CCOC)c1Cc1cc(C)cc(C)c1 [Compound 78] | 7.128 | 8.678
24 | CCc1c(C)[nH]c(=O)c(N(C)C(C)C)c1Cc1cc(C)cc(C)c1 [Compound 79] | 5.47 | 6.987

Row | SMILES | HIV1 pIC50 strain 103N (HIV-1 strain 103 N) | HIV1 pIC50 strain IIIB (HIV-1 strain IIIB)
25 | CCc1c(C)[nH]c(=O)c(N)c1CNCc1ccccc1 [Compound 80] | <4 | <4
26 | CCNc1c(Cc2cc(C)cc(C)c2)c(CC)c(C)[nH]c1=O [Compound 81] | 6.444 | 7.866
27 | CCCNc1c(Cc2cc(C)cc(C)c2)c(CC)c(C)[nH]c1=O [Compound 82] | 5.813 | 7.735
28 | CCc1c(C)[nH]c(=O)c(N)c1CNCc1cccc(C)c1 [Compound 83] | <4 | <4.033
29 | CCc1c(C)[nH]c(=O)c(N)c1Cc1nccn1C [Compound 84] | <4 | <4
30 | Cc1cccc(Cc2c(C)c(C)[nH]c(=O)c2N)c1 [Compound 85] | <4 | 4.954
31 | Cc1cccc(Cc2c(C)c(C)[nH]c(=O)c2N(C)C)c1 [Compound 86] | 5.936 | 7.863
32 | CCc1c(C)[nH]c(=O)c(N)c1C(=O)c1cccc(C)c1 [Compound 87] | 5.653 | 6.46
33 | Cc1cccc(C(=O)c2c(C)c(C)[nH]c(=O)c2N(C)C)c1 [Compound 96] | 6.37 | 7.824
34 | CCc1c(C)[nH]c(=O)c(N)c1CN(C)Cc1ccccc1 [Compound 97] | <4 | <4
35 | CCc1cccc(Cc2c(CC)c(C)[nH]c(=O)c2N)c1 [Compound 98] | 4.978 | 5.358
36 | CCc1cccc(Cc2c(CC)c(C)[nH]c(=O)c2N(C)C)c1 [Compound 99] | 6.718 | 8.569
37 | Cc1cc(C)cc(Cc2cc(C)[nH]c(=O)c2N)c1 [Compound 100] | <4 | 4.871
38 | Cc1cc(C)cc(Cc2cc(C)[nH]c(=O)c2N(C)C)c1 [Compound 101] | 4.25 | 6.341
39 | CCc1c(C)[nH]c(=O)c(N(C)C)c1CN(C)Cc1ccccc1 [Compound 102] | <4 | 4.369
40 | CCCc1cccc(Cc2c(CC)c(C)[nH]c(=O)c2N(C)C)c1 [Compound 104] | 7.058 | 8
41 | CCc1c(C)[nH]c(=O)c(N(C)C)c1Cc1cccc(OC)c1 [Compound 121] | 6.948 | 8.469
42 | CCc1c(C)[nH]c(=O)c(N(C)CCCCCO)c1Cc1cc(C)cc(C)c1 [Compound 123] | 6.918 | 8.444
43 | CCc1c(C)[nH]c(=O)c(N(C)C(C)COC)c1Cc1cc(C)cc(C)c1 (stereo not drawn) [Compound 129] | 7.057 | 8.398
44 | CCc1c(C)[nH]c(=O)c(N(C)CCOC)c1Cc1cccc(C)c1 [Compound 136] | 6.996 | 9
45 | CCc1c(C)[nH]c(=S)c(N(C)C)c1C(=O)c1cc(C)cc(C)c1 [Compound 138] | 7.401 | 8.215
46 | CCc1c(C)[nH]c(=O)c(N(C)CCO)c1Cc1cccc(C)c1 [Compound 145] | 6.028 | 8.42
47 | CCc1c(C)[nH]c(=O)c(N(C)C)c1Sc1cc(C)cc(C)c1 [Compound 149] | 7.883 | 8.959
48 | CCc1c(C)[nH]c(=O)c(N(C)CCCCCO)c1Cc1cccc(C)c1 [Compound 154] | 6.262 | 8.009
